# Reference: US10238685B2, “Compositions containing polymeric sulfur and uses thereof” (Johnson & Johnson Consumer Inc., priority 2015, dated 2019)
# Where two headings read alike, the source gives them in different places.
# Legend:
# Format in all cases: cell-based
# [1] = tested on: Propionibacterium acnes ATCC 6919; experiment: Antimicrobial Efficacy Test - Microcentrifuge Tube Method, P. acnes; conditions: for Log / cfu/ml / log reduction: 30 minute exposure
# Method: (§1) For efficacy studies against Propionibacterium acnes, Staphylococcus aureus, and Escherichia coli 1% test sample suspensions [Sulfur (S) Sigma or Polymeric Sulfur (Sn) IS90 from Wuxi Wanli Chemical, China] were prepared as w/v in Butterfield's Phosphate Buffer. Serial dilutions of 1:10 were performed v/v for lower concentrations. Aliquots were then pipetted into microcentrifuge tube for exposure to test organism. Concentrations of 10% and 5% for testing against Aspergillus brasiliensis were weighed and diluted directly in microcentrifuge tubes. Each test organism was standardized to concentration of 10E6 cfu/ml. Test sample was inoculated as 1:10 (0.1 ml inoculum to 0.9 ml sample) for final concentration of 10E5 cfu/ml sample. Buffer control sample was included and used to calculate log reduction for each test sample. After inoculation, study tubes were placed at 37° C. (±2° C.), shaking at 1000 rpm for set exposure time (30 minutes, 1 hour or 3 hours). At completion of exposure time, each tube was centrifuged for 10 seconds to settle test material out of suspension. Aliquot of fluid was removed, serial diluted and plated for recovery of viable organisms. Each organism was plated on appropriate media and incubated at proper temperature and length of time before counting recoveries.
# [2] = tested on: Staphylococcus aureus ATCC 6538; experiment: Antimicrobial Efficacy Test - Microcentrifuge Tube Method, S. aureus; conditions: for Log / cfu/ml / log reduction: 60 minute exposure
# Method: as §1
# [3] = tested on: Escherichia coli ATCC 8739; experiment: Antimicrobial Efficacy Test - Microcentrifuge Tube Method, E. coli; conditions: for Log / cfu/ml / log reduction: 30 minute exposure
# Method: as §1
# [4] = tested on: Aspergillus brasiliensis ATCC 16404; experiment: Antimicrobial Efficacy Test - Microcentrifuge Tube Method, A. brasiliensis; conditions: for Log / cfu/ml / log reduction: 3 hour exposure
# Method: as §1
# [5] = tested on: IL-22-induced IL-8 cytokine release; experiment: IL-22-induced IL-8 cytokine release in normal human epidermal keratinocytes
# Method: The anti-inflammatory potential of polymeric sulfur (Sn) and of regular sulfur (S) were evaluated in-vitro in human primary epidermal cell cultures. Normal human epidermal keratinocytes were purchased from Promocell (Heidelberg, Germany). The cells were plated in 24-well tissue culture treated plates at a density of 30,000 cells/well in Lonza KGM-Gold Bullet Kit without hydrocortisone (Lonza, Walkersville, Md.). After 48 hours, cells were treated with the actives described below: Polymeric form of sulfur (IS-90, Wuxi Wanli Chemical, China) and the regular form of sulfur (Sigma-Aldrich, St Louis, Mo., USA) at indicated concentrations, either in the presence or absence of the pro-inflammatory cytokine IL-22 (R&D Systems, Minneapolis, Minn.) 20 ng/ml. Following the treatment period of 24 hrs, the cell culture media supernatants were collected and analyzed for IL-8 cytokine release using MILLIPLEX®MAP kit (Millipore Corp., Billerica, Mass.).
# [6] = tested on: IL-1α pro-inflammatory cytokine release; experiment: IL-1α cytokine release in human skin equivalents (EPI 200 HCF-PRF)
# Method: The potential to induce the pro-inflammatory cytokine release IL1-a by either the polymeric sulfur (Sn) and of regular sulfur (S) were evaluated in human skin equivalents. Human skin equivalents (EPI 200 HCF-PRF), multilayer and differentiated epidermis consisting of normal human epidermal keratinocytes, were purchased from MatTek (Ashland, Mass.). Upon receipt, skin equivalents were incubated for 24 hours at 37° C. in maintenance medium without hydrocortisone. Equivalents were topically treated (0.1%, 1% and 10%) with either polymeric sulfur (IS-90, Wuxi Wanli Chemical, China) or regular sulfur (S, Sigma-Aldrich, St Louis, Mo., USA) in 70% ethanol/30% propylene glycol vehicle, and compared to either vehicle alone used as negative control, or to the 10 mM SDS used as positive control. Equivalents were incubated for 48 hours at 37° C. with maintenance medium then supernatants were analyzed for IL-1α pro-inflammatory cytokine release using MILLIPLEX®MAP kit (Millipore Corp., Billerica, Mass.).
# IL-8 cytokine release = IL-8 cytokine release in normal human epidermal keratinocytes
# Method: The irritation/inflammatory/mildness potential of polymeric sulfur (Sn) and of regular sulfur (S) were evaluated in-vitro in human primary cell cultures. Normal human epidermal keratinocytes were purchased from Promocell (Heidelberg, Germany). The cells were plated in 24-well tissue culture treated plates at a density of 30,000 cells/well in Lonza KGM-Gold BulletKit without hydrocortisone (Lonza, Walkersville, Md., USA). After 48 hours, cells were treated with the actives described below: Polymeric form of sulfur (Wuxi Wanli Chemical, China) and the regular form of sulfur (Sigma-Aldrich, St Louis, Mo.) at indicated concentrations for 24 hours, following which supernatants were collected and analyzed for IL-8 and IL-1α cytokine release using MILLIPLEX®MAP kit (Millipore Corp., Billerica, Mass.).
molecule,measurement,setting,value
"S1SSSSSSS1 [S, Sulfur]",Log,[1]; 0.001%,5.3
same,cfu/ml,[1]; 0.001%,2.0E+05 cfu/ml
same,log reduction,[1]; 0.001%,0.1
same,Log,[1]; 0.01%,5.3
same,cfu/ml,[1]; 0.01%,1.9E+05 cfu/ml
same,log reduction,[1]; 0.01%,0.1
same,Log,[1]; 0.1%,5.3
same,cfu/ml,[1]; 0.1%,1.8E+05 cfu/ml
same,log reduction,[1]; 0.1%,0.1
same,Log,[1]; 1% w/v,5.2
same,cfu/ml,[1]; 1% w/v,1.6E+05 cfu/ml
same,log reduction,[1]; 1% w/v,0.2
same,"antimicrobial efficacy, conclusion",[1]; at 0.01% or 0.001%,Neither form was efficacious
same,Log,[2]; 0.001%,4.0
same,cfu/ml,[2]; 0.001%,9.1E+03 cfu/ml
same,log reduction,[2]; 0.001%,1.4
same,Log,[2]; 0.01%,4.0
same,cfu/ml,[2]; 0.01%,1.0E+04 cfu/ml
same,log reduction,[2]; 0.01%,1.4
same,Log,[2]; 0.1%,3.5
same,cfu/ml,[2]; 0.1%,3.0E+03 cfu/ml
same,log reduction,[2]; 0.1%,1.9
same,Log,[2]; 1% w/v,5.3
same,cfu/ml,[2]; 1% w/v,2.1E+05 cfu/ml
same,log reduction,[2]; 1% w/v,0.1
same,"antimicrobial efficacy, conclusion",[2]; at 0.1%,the forms were equivalent
same,Log,[3]; 0.001%,6.1
same,cfu/ml,[3]; 0.001%,1.3E+06 cfu/ml
same,log reduction,[3]; 0.001%,0.1
same,Log,[3]; 0.01%,6.1
same,cfu/ml,[3]; 0.01%,1.3E+06 cfu/ml
same,log reduction,[3]; 0.01%,0.1
same,Log,[3]; 0.1%,6.1
same,cfu/ml,[3]; 0.1%,1.4E+06 cfu/ml
same,log reduction,[3]; 0.1%,0.1
same,Log,[3]; 1% w/v,6.2
same,cfu/ml,[3]; 1% w/v,1.5E+06 cfu/ml
same,log reduction,[3]; 1% w/v,0.0
same,"antimicrobial efficacy, conclusion","[3]; at 0.1%, 0.01% or 0.001%",Neither form was efficacious
same,Log,[4]; 0.1%,5.5
same,cfu/ml,[4]; 0.1%,3.2E+05 cfu/ml
same,log reduction,[4]; 0.1%,−0.1
same,Log,[4]; 1%,5.3
same,cfu/ml,[4]; 1%,2.0E+05 cfu/ml
same,log reduction,[4]; 1%,0.1
same,Log,[4]; 5%,5.5
same,cfu/ml,[4]; 5%,2.9E+05 cfu/ml
same,log reduction,[4]; 5%,−0.1
same,Log,[4]; 10%,5.4
same,cfu/ml,[4]; 10%,2.8E+05 cfu/ml
same,log reduction,[4]; 10%,0.0
same,"antimicrobial efficacy, conclusion",[4]; at 1% or 0.01%,Neither was efficacious
same,IL-8 release vs untreated control cells in presence of IL-22 (FIG. 1),"[5]; 0.01% up to 3%, IL-22 20 ng/ml, 24 hrs",did induce significantly the stimulation of the pro-inflammatory cytokine IL-8
same,anti-inflammatory potential in human primary epidermal cells in vitro,"[5]; composition, measured per procedure of the Examples",greater than 220 pg/ml
same,stimulation of pro-inflammatory cytokine IL-1α (FIG. 2),"[6]; topical 0.1%, 1% and 10% in 70% ethanol/30% propylene glycol, 48 hours",did induce the stimulation of the pro-inflammatory cytokine IL-1α in a dose-dependent manner
same,stimulation of pro-inflammatory cytokine IL-8 vs untreated control cells (FIG. 3),"IL-8 cytokine release; 0.01% up to 3%, 24 hours, no IL-22",did induce significantly the stimulation of the pro-inflammatory biomarker cytokine IL-8
Polymeric Sulfur [Sn],stimulation of pro-inflammatory cytokine IL-1α (FIG. 2),[6],did not induce the production of IL-1α to the same extent
same,stimulation of pro-inflammatory cytokine IL-8 vs untreated control cells (FIG. 3),IL-8 cytokine release,showed significantly lower stimulation of the pro-inflammatory cytokine IL-8
